Experiment [1] can be described thus: Octreotide prophylaxis of irinotecan-induced diarrhea in patients receiving irinotecan. The format is in vivo. Conditions: octreotide prophylactic treatment before or concurrent with irinotecan; octreotide acetate long-acting release formulation 10, 20 or 30 mg. How it is done: In the prophylaxis of diarrhea according to the invention, octreotide may be administered simultaneously with irinotecan, or the compounds may be administered sequentially, in any desired order. Preferably octreotide is administered some days before the first irinotecan administration and subsequent octreotide administrations are before or simultaneous with irinotecan administration, the time of administration (dosing intervals) of octreotide depending on the preferred irinotecan-scheduled regimen. In a preferred embodiment of the present invention, octreotide acetate long-acting release formulation is administered 10-14 days prior to the first irinotecan dose. For example, when irinotecan is administered in a planned 6-week cycle, wherein irinotecan is given intravenously as a single-agent or in combination with other antineoplastic agents such as, e.g., cisplatin, 5-fluoruracil or others, over 30-90 minutes once weekly for 4 weeks followed by a 2-week rest period, octreotide acetate long-acting release formulation may be administered prior to the first irinotecan dose and again on Day 15 or Day 22 of this 6-week cycle. The octreotide acetate long-acting release formulation dosage is 10 mg, 20 mg or 30 mg at the time of each octreotide administration. […]

The conditions of experiment [2]: cited from earlier work.
The conditions of experiment [3]: patients who experienced this side-effect during a previous course of chemotherapy; cited from earlier work.
The conditions of experiment [4]: prophylaxis against chemotherapy-induced diarrhea; cited from earlier work.
The conditions of experiment [5]: intensive, immediate application once diarrhea has started; cited from earlier work.

With `C[C@@H](O)[C@@H]1NC(=O)[C@H](CCCCN)NC(=O)[C@@H](Cc2c[nH]c3ccccc23)NC(=O)[C@H](Cc2ccccc2)NC(=O)[C@@H](NC(=O)[C@H](N)Cc2ccccc2)CSSC[C@@H](C(=O)N[C@H](CO)[C@@H](C)O)NC1=O` (relative stereo) [octreotide, L-cysteinamide,D-phenylalanyl-L-cysteinyl-L-phenylalanyl-D-tryptophyl-L-lysyl-L-threonyl-N-[2-hydro-1-hydroxymethyl) propyl]-, cyclic (2→7)-disulfide; [R-(R*,R*)]], in experiment [1], the “severity and duration of diarrhea” value is “avoids or remarkably limits the severity and duration of diarrhea in many cases”. The “treatment of 5-fluorouracil-induced diarrhea” value in experiment [2] (Meropol et al. 1998) is “successful in the treatment of 5-fluorouracil-induced diarrhea”. In experiment [2] (randomized trial comparing octreotide with loperamide), the “efficacy in therapy of 5-fluorouracil-induced diarrhea, compared with loperamide” value is given as “more effective than loperamide”. For the same compound, the “prevention of diarrhea associated with cisplatin” value in experiment [3] was “active in preventing diarrhea”. The “prevention of diarrhea associated with 5-fluorouracil plus leucovorin” value in experiment [4] is “does not prevent diarrhea”.
In the case of `CN(C)C(=O)C(CCN1CCC(O)(c2ccc(Cl)cc2)CC1)(c1ccccc1)c1ccccc1` [loperamide], in experiment [5], the frequency of diarrhea entry is given as “had not reduced the frequency of diarrhea” and the severity of diarrhea entry is reported as “often successful in reducing the severity of diarrhea”.

The values are drawn from US6395708B1, “Method for preventing diarrhea” (Novartis, A.G., priority 1999, dated 2002).
